Data on 2 molecules can be found in PMC10714400, “Antimicrobial Peptide–Peptoid Hybrids with and without Membrane Disruption” (ACS Infectious Diseases, 2023).

Data set [1] deals with E. coli W3110. Description: Time–kill assay. The data set is classed as cell-based, Escherichia coli. From the text:
(§1) Figure 1 Killing profile of selected compounds on bacteria a) against E. coli W3110 measured in full MH at pH 7.4, b) against P. aeruginosa PAO1 in full MH at pH 7.4, c) against E. coli W3110 in diluted MH at pH 8.5, and d) against P. aeruginosa PAO1 in dilute MH at pH 8.5. The assay was repeated twice in triplicate, and the data represent the mean ± SD, n = 6.

For data set [2], the system named is E. coli W3110. Nature of the data set: NPN outer membrane permeability assay. The data set is classed as cell-based, Escherichia coli. As to the method: Figure 4 Interactions of peptide–peptoid hybrids with bacterial outer and inner membranes of E. coli. (a, b) NPN outer membrane permeability assay. E. coli W3110 bacteria were treated with increasing compound concentrations in the presence of 10 μM NPN. The fluorescence intensity (λex = 340 nm, λem = 415 nm) was measured within 5 min. Data represent mean ± SD, n = 3. (c, d) DiSC3(5) inner membrane depolarization assay. E. coli W3110 bacteria were treated with increasing compound concentrations in the presence of 2 μM DiSC3(5). The fluorescence intensity (λex = 610 nm, λem = 660 nm) was measured within 5 min after treatment, and the data represent mean ± SD, n = 3.
A single colony of P. aeruginosa PAO1 and E. coli W3110 was grown overnight while being shaken (150 rpm) in LB-broth (5 mL) at 37 °C. 100 μL of the overnight culture was regrown in 10 mL of LB broth with shaking (200 rpm) to the exponential phase (OD600 = 1, corresponding to 10^9 CFU/mL). Bacteria were washed three times with HEPES buffer (5 mM HEPES, 5 mM glucose, pH 7.4), but not diluted yet to their final concentration. 200 μL of peptide samples was added to the first well of 96-well plates (black wells, flat bottom, BRAND GmbH Wertheim, Germany), 100 μL of HEPES/glucose buffer with 10 μM N-phenyl-1-naphthylamine (NPN, purchased from Acros Organics) was added in all the wells, and the compounds were diluted serially by 1/2 (add a control with a final volume of 200 μL with 10 μM NPN in buffer only). Ca. 10 min before the measurement and the final dilution of the bacteria, the plates and the 10 μM NPN in HEPES/glucose buffer (for bacteria dilution) were incubated at 37 °C (prior to the dilution of the bacteria with buffer containing NPN 10 μM). Later, the bacteria were diluted to OD600 = 0.5 with the NPN in HEPES/glucose buffer. 100 μL of the bacterial suspension was added to each well. In this case, the final OD of bacteria was 0.25, the final concentration of the desired compound 64 μg/mL, and NPN 10 μM. The control wells are buffer containing NPN (10 μM, 200 μL) and bacterial suspension containing NPN in HEPES buffer. The plate was measured with a Tecan instrument Infinite M1000 within 5 min. The plate was enabled to shake for 5 s before measurement. The excitation wavelength used was 340 ± 5 nm, and emission wavelength was 415 ± 5 nm. The assay was repeated at least three times.

In another data set the test system is P. aeruginosa PAO1. Description: Time–kill assay. The data set is classed as cell-based, Pseudomonas aeruginosa.
Description: as §1

Data set [3] in a line: Circular dichroism, α-helical content. The data set is classed as physicochemical. Conditions: 0.1 mg/mL; for CD %α with 5 mM DPC: 10 mM phosphate buffer pH 7.4, 5 mM DPC; for CD %α with 20% TFE: 10 mM phosphate buffer pH 7.4, 20% TFE. A general note: Circular dichroism is widely used to follow secondary structure.
The next data set has as its system P. aeruginosa PA14. The method in brief:
(§2)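 MICs were determined by broth microdilution in MH medium, with approximately 5 × 10^5 CFU added per well and plates held at 37 °C for about 18 h without shaking.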

For a further data set, the system named is S. epidermis. The method, boiled down: as §2
In a further data set the test system is B. cenocepacia. The method in brief: as §2
In a further data set the test system is S. maltophilia. The method, boiled down: as §2
A short description of data set [4]: Lipid vesicle leakage assay. Conditions: 10 mM TRIS, 107 mM NaCl, pH 7.4; for Vesicle leakage activity on EYPC vesicles: egg yolk phosphatidyl choline vesicles; for Vesicle leakage activity on EYPG vesicles: fluorescein-loaded anionic EYPG vesicles. As to the method: (c) Vesicle leakage assay for a selection of compounds.
EYPG - EB11 1 EYPC - EB11
Figure S2: Vesicle leakage experiments using 5(6)-carboxyfluorescein induced by peptides. EYPG and EYPC
compound was added after 45 sec. After 240 seconds, 30 µL Triton X-100 1.2% was added for full release of […]

Data set [5] has as its system human red blood cells (hRBC). Description: Minimum hemolytic concentration (MHC). The data set is classed as cell-based.
Description: We also measured minimal hemolysis concentrations (MHC) on human red blood cells by serial 2-fold dilution as an indication of toxicity against eukaryotic cells (Table 1).
Where [6] appears, read: diluted MH ([…] MH) at pH 8.5 (Table 2 footnote b).

Values after ≈ are worked out from the molar mass of the structure shown. Like-named read-outs stand apart in the source and are kept apart here. Where a SMILES comes first, the peptide text is derived from it. [ ]: non-standard residue; d: D form. Nleu = CC(C)CNCC(=O)O; Nlys = NCCCCNCC(=O)O A value given as a limit tells only on which side of the number the result lay.

Consider `CC(C)C[C@H](NC(=O)[C@H](CC(C)C)NC(=O)[C@H](CC(C)C)NC(=O)[C@H](CCCCN)NC(=O)[C@H](CC(C)C)NC(=O)[C@H](CC(C)C)NC(=O)CN(CCCCN)C(=O)[C@H](CC(C)C)NC(=O)[C@H](CC(C)C)NC(=O)CN(CCCCN)C(=O)CNCCCCN)C(N)=O` [EB6, kkLLkLLKLLL] (H-[Nlys][Nlys]LL[Nlys]LLKLLL-NH2), for which the “Time–kill, killing profile” value was “completely killed” in the data set on E. coli W3110 [1] (E. coli W3110, full MH at pH 7.4) and “completely killed” in the data set with P. aeruginosa PAO1 (P. aeruginosa PAO1, full MH at pH 7.4). Also, the “Outer membrane permeabilization (NPN)” value with E. coli W3110 [2] (not told) was “permeabilized the outer membrane”. For the same molecule, the “CD %α with 5 mM DPC” value in data set [3] (DichroWeb, Contin-LL) worked out at 41%; in [3] (Table S2), 41%. Also, the “CD %α with 20% TFE” value in data set [3] (DichroWeb, Contin-LL) came out at 35%; in data set [3] (Table S2), 35%. Besides, the “MIC P. aeruginosa PA14, full MH at pH 7.4” value against P. aeruginosa PA14 (PA14, 4 h, pH 7.4) is 3 ug/mL. Also, the “MIC P. aeruginosa PA14” value is 2 to 4 µg/mL in the data set with P. aeruginosa PA14 (PA14, pH 7.4) and 2 µg/mL (≈ 1.51 µM) with P. aeruginosa PA14 (PA14, pH 8.5). The “MIC S. epidermis, full MH at pH 7.4” value with S. epidermis (4 h, pH 7.4) came out at 3 ug/mL. Also, the “MIC S. epidermis” value was 2 µg/mL (≈ 1.51 µM) with S. epidermis (4 h, pH 8.5) and 2 to 4 µg/mL in the data set with S. epidermis (pH 7.4). Moreover, the “MIC B. cenocepacia, full MH at pH 7.4” value against B. cenocepacia (4 h, pH 7.4) was above 32 ug/mL. The “MIC B. cenocepacia” value with B. cenocepacia (pH 7.4) was above 32 µg/mL. For the same molecule, the “MIC S. maltophilia, full MH at pH 7.4” value with S. maltophilia (4 h, pH 7.4) turned out to be 3 ug/mL. In addition, the “MIC S. maltophilia” value in the data set on S. maltophilia (4 h, pH 8.5) fell in the range of 2 to 4 µg/mL; in the data set with S. maltophilia (pH 7.4) it was 2 to 4 µg/mL. In [4], the “Vesicle leakage activity on EYPC vesicles” value is “very low levels of activity”. The “Vesicle leakage activity on EYPG vesicles” value in data set [4] is given as “very strong activities”. This molecule displayed an MHC in data set [5] of 250 µg/mL. Besides, the “MHC (hemolysis)” value in data set [5] (red cells of human) is 250 to 1000 µg/mL.
Consider `CC(C)CN(CC(N)=O)C(=O)CN(CC(C)C)C(=O)CN(CC(C)C)C(=O)CN(CCCCN)C(=O)CN(CC(C)C)C(=O)CN(CC(C)C)C(=O)CN(CCCCN)C(=O)CN(CC(C)C)C(=O)CN(CC(C)C)C(=O)CN(CCCCN)C(=O)CNCCCCN` [EB11, kkllkllklll] (H-[Nlys][Nlys][Nleu][Nleu][Nlys][Nleu][Nleu][Nlys][Nleu][Nleu][Nleu]-NH2), for which the “Time–kill, killing profile” value in the data set with E. coli W3110 [1] (E. coli W3110, diluted MH at pH 8.5) was “Bacteria could still be detected after 6 h”; with P. aeruginosa PAO1 (P. aeruginosa PAO1, dilute MH at pH 8.5), “killed P. aeruginosa, however at a rather slow rate”. In the data set with E. coli W3110 [2] (E. coli W3110, 10 μM NPN), the “Outer membrane permeabilization (NPN)” value is “significant outer membrane permeabilization”. The “CD %α with 5 mM DPC” value worked out at 7% in [3] (DichroWeb, Contin-LL) and 7% in data set [3] (Table S2). Further, the “CD %α with 20% TFE” value in data set [3] (DichroWeb, Contin-LL) is given as 8%; in data set [3] (Table S2), 8%. The “MIC P. aeruginosa PA14, […] MH at pH 8.5” value with P. aeruginosa PA14 (CSV, […] MH at pH 8.5) is recorded as 3 ug/mL. Moreover, the “MIC P. aeruginosa PA14” value with P. aeruginosa PA14 (Table S3, […] MH at pH 8.5, 16-20 hours at 37 °C) was 2 to 4 µg/mL; against P. aeruginosa PA14 (setting [6]) it was 2 to 4 µg/mL. Besides, the “MIC S. epidermis, […] MH at pH 8.5” value in the data set with S. epidermis (CSV, […] MH at pH 8.5) amounted to 1 ug/mL. Besides, the “MIC S. epidermis” value in the data set on S. epidermis (Table S3, […] MH at pH 8.5) stood at 1 µg/mL (≈ 0.757 µM). Besides, the “MIC B. cenocepacia” value with B. cenocepacia (setting [6]) was above 32 µg/mL. Moreover, the “MIC S. maltophilia, […] MH at pH 8.5” value against S. maltophilia (CSV, […] MH at pH 8.5) worked out at 4 ug/mL. In addition, the “MIC S. maltophilia” value in the data set with S. maltophilia (Table S3, […] MH at pH 8.5) is 4 µg/mL (≈ 3.03 µM). For the same molecule, the “Vesicle leakage activity on EYPC vesicles” value in [4] is reported as “no activity”. Also, the “Vesicle leakage activity on EYPG vesicles” value in data set [4] was “weak or no vesicle leakage activity”. Moreover, the MHC was above 2000 µg/mL in data set [5] (CSV); above 2000 µg/mL in data set [5] (Table S2, hRBC, 10 mM phosphate buffer, 150 mM NaCl, pH 7.4, 25 °C, 4 h); above 2000 µg/mL in data set [5] (hRBC, 10 mM phosphate buffer, 150 mM NaCl, pH 7.4, 25 °C, 4 h). Further, in data set [5] (human red blood cells), the Hemolysis entry is reported as “none of them showed any measurable hemolysis”.
